Our source for the IC50 and Km values is article PMC4268798, “Acetylcholinesterase of the sand fly, Phlebotomus papatasi (Scopoli): construction, expression and biochemical properties of the G119S orthologous mutant” (Parasites & Vectors, 2014).

One series has as its target T1, rPpAChE1 (Phlebotomus papatasi, UniProt M1F887).
T1 construct: gene AChE; cell lysate assayed
In words: biochemical.

A further series concerns CC(=O)SCC[N+](C)(C)C. In words: modified Ellman assay. The class given is biochemical, Phlebotomus papatasi. (In general: In Ellman's method for cholinesterases, released thiocholine reacts with DTNB.)

The term IC50 denotes the concentration that inhibits the measured activity by half. The low end stands for greater potency, the high end for weaker potency. At rPpAChE1, `CCC(C)n1cc(OC(=O)NC)cn1` (stereo not drawn) [compound 3, 1-(sec-butyl)-1H-pyrazol-4-yl methylcarbamate] gave an IC50 of 13 nM.

The compound `CNC(=O)Oc1cnn(CCC(C)C)c1` [compound 4, 1-isopentyl-1H-pyrazole-4-yl methylcarbamate] yielded an IC50 at rPpAChE1 of 75 nM.

The compound `COc1cc2c3cc1Oc1cc(ccc1O)C[C@@H]1c4c(cc(OC)c(O)c4Oc4ccc(cc4)C[C@@H]3N(C)CC2)CC[N+]1(C)C` [Tubocurarine] displayed an IC50 at rPpAChE1 of 143000 nM.

For `CNC(=O)Oc1cnn(CC(C)C)c1` [compound 5, 1-isobutyl-1H-pyrazol-4-yl methylcarbamate], the IC50 at rPpAChE1 was 76 nM.

As usually defined, the Km is the substrate concentration at which the rate is half of its maximum. On to rPpAChE1 (Phlebotomus papatasi), for which the Km in the series on CC(=O)SCC[N+](C)(C)C was determined as 24 µM.

Take `CNC(=O)Oc1ccccc1OC(C)C` [Propoxur]: at rPpAChE1, the IC50 was 220 nM.

For the compound `Nc1c2c(nc3ccccc13)CCCC2` [Tacrine], at rPpAChE1, the 50% inhibitory concentration (IC50) is 67 nM.

In turn, `CCOC(=O)CC(SP(=O)(OC)OC)C(=O)OCC` (stereo not drawn) [Malaoxon] registered an IC50 on rPpAChE1 of 4.36 nM.

On rPpAChE1, `CNC(=O)Oc1cccc(C(C)(C)C)c1` [compound 2, 3-(tert-butyl)phenyl methylcarbamate] yielded an IC50 of 36 nM.

On rPpAChE1, `CNC(=O)Oc1cccc2c1OC(C)(C)C2` [Carbofuran] had a half-maximal inhibitory concentration (IC50) of 24 nM.

For the compound `CNC(=O)Oc1ccc2c(c1)[C@]1(C)CCN(C)[C@@H]1N2C` [Eserine], on rPpAChE1, the IC50 was found to be 3.2 nM.

As for `CC[n+]1c(-c2ccccc2)c2cc(N)ccc2c2ccc(N)cc21` [Ethidium Bromide], the midpoint of inhibition on rPpAChE1, the IC50, lay at 17100 nM.
